How the values were obtained:
Format in all cases: in vivo
[1] = system: sedge, umbrella (small-flower umbrella sedge, Cyperus difformis); assay: Test B flooded paddy test, visual plant response rating 0-100; conditions: 250 g ai/ha, Flood, applied to paddy water, evaluated after 13 days
How it was run: (§1)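 In this flooded assay, 2-leaf seedlings received compound through the water layer, kept at 3 cm over the soil. Plants were held 13 days in a greenhouse and then visually compared with control pots.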

[2] = system: barnyardgrass (Echinochloa crusgalli); assay: as above; conditions: 250 g ai/ha, Flood, applied to paddy water, evaluated after 13 days
How it was run: as §1

[3] = system: ducksalad (Heteranthera limosa); assay: as above; conditions: 250 g ai/ha, Flood, applied to paddy water, evaluated after 13 days
How it was run: as §1

[4] = system: rice (Oryza sativa); assay: as above; conditions: 250 g ai/ha, Flood, applied to paddy water, evaluated after 13 days
How it was run: as §1

[5] = system: horseweed (Erigeron canadensis); assay: Test A postemergence application, visual injury rating 0-100
How it was run: (§2)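 Visual injury ratings (0, no effect; 100, complete control) were assigned relative to untreated plants 10 days after treatment. Test chemicals, formulated with a surfactant-containing non-phytotoxic solvent, were applied in loam-sand soil either as a directed soil spray before emergence or to emerged plants, and plants were kept in a greenhouse.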

[6] = system: soybean (Glycine max); assay: as above
How it was run: as §2

[7] = system: wheat (Triticum aestivum); assay: as above
How it was run: as §2

[8] = system: galium (catchweed bedstraw, Galium aparine); assay: as above
How it was run: as §2

[9] = system: blackgrass (Alopecurus myosuroides); assay: as above
How it was run: as §2

[10] = system: green foxtail (Setaria viridis); assay: as above
How it was run: as §2

[11] = system: ryegrass, Italian (italian ryegrass, Lolium multiflorum); assay: as above
How it was run: as §2

[12] = system: corn (Zea mays); assay: as above
How it was run: as §2

[13] = system: barnyardgrass (Echinochloa crus-galli); assay: as above
How it was run: as §2

[14] = system: oat, wild (wild oat, Avena fatua); assay: as above
How it was run: as §2

[15] = system: kochia (Bassia scoparia); assay: as above
How it was run: as §2

[16] = system: palmer (palmer amaranth, palmer pigweed, Amaranthus palmeri); assay: as above
How it was run: as §2

[17] = system: ragweed (common ragweed, Ambrosia artemisiifolia); assay: as above
How it was run: as §2

[18] = system: soybean (Glycine max); assay: Test A preemergence soil spray, visual injury rating 0-100; conditions: 10 days
How it was run: as §2

[19] = system: wheat (Triticum aestivum); assay: as above; conditions: 10 days
How it was run: as §2

[20] = system: blackgrass (Alopecurus myosuroides); assay: as above; conditions: 10 days
How it was run: as §2

[21] = system: green foxtail (Setaria viridis); assay: as above; conditions: 10 days
How it was run: as §2

[22] = system: ryegrass, Italian (italian ryegrass, Lolium multiflorum); assay: as above; conditions: 10 days
How it was run: as §2

[23] = system: corn (Zea mays); assay: as above; conditions: 10 days
How it was run: as §2

[24] = system: barnyardgrass (Echinochloa crus-galli); assay: as above; conditions: 10 days
How it was run: as §2

[25] = system: oat, wild (wild oat, Avena fatua); assay: as above; conditions: 10 days
How it was run: as §2

[26] = system: kochia (Bassia scoparia); assay: as above; conditions: 16 g ai/ha, 0 to 100 scale, 10 days
How it was run: as §2

[27] = system: palmer (palmer amaranth, palmer pigweed, Amaranthus palmeri); assay: as above; conditions: 10 days
How it was run: as §2

[28] = system: ragweed (common ragweed, Ambrosia artemisiifolia); assay: as above; conditions: 10 days
How it was run: as §2

[29] = 62 g ai/ha, postemergence, 10 days, 0 = no effect, 100 = complete control
[30] = Postemergence, 16 g ai/ha, greenhouse 10 days, 0 no effect, 100 complete control
[31] = 62 g ai/ha, 0 = no effect, 100 = complete control

SMILES: Cc1cc(C)cc(N2CC(C)(C(=O)NC3C=CC(C(=O)O)C3)OC2=O)c1 (stereo not drawn) [Compound 126]
- Plant response rating, Sedge, Umbrella (0 to 100 scale, 0 is no effect and 100 is complete control) [1]: 35
- Plant response rating, Barnyardgrass (0 to 100 scale, 0 is no effect and 100 is complete control) [2]: 25
- Plant response rating, Ducksalad (0 to 100 scale, 0 is no effect and 100 is complete control) [3]: 55
- Plant response rating, Rice (0 to 100 scale, 0 is no effect and 100 is complete control) [4]: 5
- Horseweed plant response rating (0-100) [5, 29]: 20
- Horseweed plant response rating (0 to 100 scale) [5, 30]: 0
- Soybean plant response rating (0-100) [6, 29]: 60
- Soybean plant response rating (0 to 100 scale) [6, 30]: 0
- Wheat plant response rating (0-100) [7, 29]: 90
- Wheat plant response rating (0 to 100 scale) [7, 30]: 30
- Galium plant response rating (0-100) [8, 29]: 80
- Galium plant response rating (0 to 100 scale) [8, 30]: 70
- Blackgrass plant response rating (0-100) [9, 29]: 90
- Blackgrass plant response rating (0 to 100 scale) [9, 30]: 60
- Foxtail, Green plant response rating (0-100) [10, 29]: 30
- Foxtail, Green plant response rating (0 to 100 scale) [10, 30]: 0
- Ryegrass, Italian plant response rating (0-100) [11, 29]: 60
- Ryegrass, Italian plant response rating (0 to 100 scale) [11, 30]: 30
- Corn plant response rating (0-100) [12, 29]: 100
- Corn plant response rating (0 to 100 scale) [12, 30]: 20
- Barnyardgrass plant response rating (0-100) [13, 29]: 90
- Barnyardgrass plant response rating (0 to 100 scale) [13, 30]: 50
- Oat, Wild plant response rating (0-100) [14, 29]: 90
- Oat, Wild plant response rating (0 to 100 scale) [14, 30]: 30
- Kochia plant response rating (0-100) [15, 29]: 30
- Kochia plant response rating (0 to 100 scale) [15, 30]: 0
- Pigweed, Palmer plant response rating (0-100) [16, 29]: 30
- Pigweed, Palmer plant response rating (0 to 100 scale) [16, 30]: 10
- Ragweed plant response rating (0-100) [17, 29]: 30
- Ragweed plant response rating (0 to 100 scale) [17, 30]: 0
- Soybean plant response rating ([18]; 16 g ai/ha, 0 to 100 scale): 0
- Soybean plant response rating (0-100) [18, 31]: 0
- Wheat plant response rating ([19]; 16 g ai/ha, 0 to 100 scale): 20
- Wheat plant response rating (0-100) [19, 31]: 90
- Blackgrass plant response rating ([20]; 16 g ai/ha, 0 to 100 scale): 0
- Blackgrass plant response rating (0-100) [20, 31]: 40
- Foxtail, Green plant response rating ([21]; 16 g ai/ha, 0 to 100 scale): 0
- Foxtail, Green plant response rating (0-100) [21, 31]: 10
- Ryegrass, Italian plant response rating ([22]; 16 g ai/ha, 0 to 100 scale): 0
- Ryegrass, Italian plant response rating (0-100) [22, 31]: 40
- Corn plant response rating ([23]; 16 g ai/ha, 0 to 100 scale): 0
- Corn plant response rating (0-100) [23, 31]: 40
- Barnyardgrass plant response rating ([24]; 16 g ai/ha, 0 to 100 scale): 10
- Barnyardgrass plant response rating (0-100) [24, 31]: 90
- Oat, Wild plant response rating ([25]; 16 g ai/ha, 0 to 100 scale): 0
- Oat, Wild plant response rating (0-100) [25, 31]: 30
- Kochia plant response rating [26]: 0
- Pigweed, Palmer plant response rating ([27]; 16 g ai/ha, 0 to 100 scale): 20
- Pigweed, Palmer plant response rating (0-100) [27, 31]: 50
- Ragweed plant response rating ([28]; 16 g ai/ha, 0 to 100 scale): 0
- Ragweed plant response rating (0-100) [28, 31]: 0

— patent US20260285850A1, “SUBSTITUTED OXAZOLIDINONES AND IMIDAZOLINONES AS HERBICIDES” (FMC CORPORATION, priority 2023, published 2026)
